“Also recorded” adds a separate entry of the source. Like-named read-outs stand apart in the source and are kept apart here.
Tests used:
Format in all cases: cell-based
human LAT3 [1] = molecular target: T1, human LAT3 (Homo sapiens, UniProt O75387); assay: Inhibition of 14C-leucine uptake by Xenopus oocytes injected with human LAT3 cRNA
T1 construct: An expression plasmid vector pSPORT1 containing cDNA of human LAT3 was cleaved by a restriction enzyme NotI, and cRNA; expressed in transfected cells; host or cells: Xenopus laevis oocytes injected with cRNA
T1 sequence (O75387 1-559): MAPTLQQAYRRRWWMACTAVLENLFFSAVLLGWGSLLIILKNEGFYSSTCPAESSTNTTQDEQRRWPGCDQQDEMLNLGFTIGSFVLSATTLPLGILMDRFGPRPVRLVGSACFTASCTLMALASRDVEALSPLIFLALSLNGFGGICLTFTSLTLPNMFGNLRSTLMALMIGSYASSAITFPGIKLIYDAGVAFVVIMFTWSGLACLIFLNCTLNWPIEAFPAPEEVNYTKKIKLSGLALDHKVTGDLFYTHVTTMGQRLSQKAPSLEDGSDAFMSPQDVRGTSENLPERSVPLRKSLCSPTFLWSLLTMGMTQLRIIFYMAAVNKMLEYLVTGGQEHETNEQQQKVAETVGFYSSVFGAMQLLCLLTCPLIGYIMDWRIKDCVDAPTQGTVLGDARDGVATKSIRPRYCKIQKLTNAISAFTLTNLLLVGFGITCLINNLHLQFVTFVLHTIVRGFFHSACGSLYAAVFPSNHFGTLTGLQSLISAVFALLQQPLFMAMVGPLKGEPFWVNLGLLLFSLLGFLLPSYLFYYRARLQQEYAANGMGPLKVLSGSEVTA

mouse LAT4 [2] = molecular target: T2, mouse LAT4 (Mus musculus, UniProt Q8CGA3, K402E/P237S); assay: Inhibition of 14C-leucine uptake by oocytes injected with mouse LAT4 cRNA; details: 14C-leucine 100 μM, 10 mM unlabeled compound, Na+-free uptake solution, Xenopus oocytes
T2 construct: An expression plasmid vector pcDNA 3.1(+) containing cDNA of mouse LAT4 was cleaved by a restriction enzyme XbaI; expressed in transfected cells; host or cells: Xenopus laevis oocytes injected with cRNA (from pcDNA3.1(+), IMAGE clone 2235970)
Procedure: In this regard, uptake of ^14C-leucine (100 μM) into the oocytes was measured in the presence or the absence of 10 mM of various compounds (unlabeled) in the Na^+-free uptake solution.

human LAT3 [3] = molecular target: T1, human LAT3; assay: Uptake of radiolabeled amino acids by Xenopus oocytes injected with human LAT3 cRNA; details: 14C-labeled substrate in place of 14C-leucine, Na+-free uptake solution, 10 minutes
Procedure: The substrate uptake by the injected oocytes using leucine as a substrate was carried out according to the method described by Kanai et al. (Kanai and Hediger, Nature, Vol. 360, 467-471 (1992)), as follows. The oocytes was cultured for 30 minutes in the Na^+-free uptake solution (100 mM of choline chloride, 2 mM of potassium chloride, 1.8 mM of calcium chloride, 1 mM of magnesium chloride, 5 mM of HEPES, pH 7.4) using ^14C-leucine (100 μM) as a substrate, and uptake rate of the substrate was measured by counting radioactivity in the cell.
The oocytes was injected with 25 ng of human LAT3 gene cRNA to be expressed thereby, and cultured for 3 days.
The experiment of the leucine uptake was carried out as follows according to the above described method in Example 1 (1). That is, the oocytes injected with the cRNA of the human LAT3 gene or water as a control were cultured for 10 minutes in Na^+-free uptake solution containing ^14C-leucine (100 μM) (refer to Example 1 (1)), and measured uptake of radioactivity into the cells.
The leucine uptake was conducted at the leucin concentrations of 1, 3, 10, 30, 60, 100, 200, 400, 1000, 2000 and 3000 μM using the oocytes injected with cRNA of the human LAT3 gene according to the above-described method in Example 3 (1). […] In addition, it was clarified that the leucine transport mediated by LAT3 is composed of high affinity component and low affinity component (FIG. 6, inserted figure).
An uptake experiment of various amino acids and amino acid analogs was carried out using the oocytes injected with cRNA of the human LAT3 gene according to the above-described method in Example 3 (1), provided that various radiolabeled amino acids were utilized in place of the ^14C-leucine.

mouse LAT4 [4] = molecular target: T2, mouse LAT4; assay: Uptake of radiolabeled amino acids by Xenopus oocytes injected with mouse LAT4 cRNA; details: 14C-labeled substrate in place of 14C-leucine
Procedure: The oocytes was injected with 25 ng of cRNA of the mouse LAT4 gene to be expressed thereby, and cultured for 3 days.
An experiment of leucine uptake was carried out as follows according to the above-described method in Example 3 (1). That is, the oocytes injected with cRNA of the mouse LAT4 gene or water as a control were cultured for 10 minutes in the Na^+-free uptake solution containing […] (100 μM) (refer to Example 3 (1)), and measured the uptake of radioactivity into the cells.
The leucine uptake was conducted at the leucin concentrations of 0.01, 0.03, 0.1, 0.3, 1, 3 and 10 mM, using the oocytes injected with cRNA of the mouse LAT4 gene according to the above-described method in Example 3 (1). […] In addition, it was clarified that the leucine transport mediated by LAT4 is composed of a high affinity component and a low affinity component, just like the leucin uptake mediated by LAT3.
An uptake experiment of various amino acids and amino acid analogs was carried out using the oocytes injected with cRNA of the mouse LAT4 gene according to the above-described method in Example 3 (1). In this regard, in place of ^14C-leucine, various radiolabeled amino acids were utilized.

human LAT3 [5] = molecular target: T1, human LAT3; assay: Influence of N-ethylmaleimide on leucine uptake by oocytes expressing human LAT3; details: pretreatment with 5 mM for 15 minutes; 14C-L-leucine 100 μM, 10 minutes
Procedure: Each of the oocytes injected with cRNA of the human LAT3 gene, injected with cRNA of the human LAT3 gene and cRNA of 4F2hc gene, or injected with water as a control was cultured for 10 minutes in the Na^+-free uptake solution containing ^14C-L-leucine (100 μM) (refer to Example 3 (2)), and uptake of radioactivity into the oocytes was measured according to the method described in Example 3 (1). In this regard, influences of pretreatment with 5 mM of N-ethylmaleimide for 15 minutes, and the presence or absence of 5 mM of N-ethylmaleimide in the uptake solution on the ^14C-leucine uptake were investigated.

LAT1 = assay: Influence of N-ethylmaleimide on leucine uptake mediated by LAT1; details: 5 mM; 14C-L-leucine 100 μM, 10 minutes
[6] = 14C-leucine 100 μM, 10 mM unlabeled compound, Na+-free uptake solution, 10 minutes, Xenopus oocytes

T2 sequence (Q8CGA3 whole entry P237S/K402E): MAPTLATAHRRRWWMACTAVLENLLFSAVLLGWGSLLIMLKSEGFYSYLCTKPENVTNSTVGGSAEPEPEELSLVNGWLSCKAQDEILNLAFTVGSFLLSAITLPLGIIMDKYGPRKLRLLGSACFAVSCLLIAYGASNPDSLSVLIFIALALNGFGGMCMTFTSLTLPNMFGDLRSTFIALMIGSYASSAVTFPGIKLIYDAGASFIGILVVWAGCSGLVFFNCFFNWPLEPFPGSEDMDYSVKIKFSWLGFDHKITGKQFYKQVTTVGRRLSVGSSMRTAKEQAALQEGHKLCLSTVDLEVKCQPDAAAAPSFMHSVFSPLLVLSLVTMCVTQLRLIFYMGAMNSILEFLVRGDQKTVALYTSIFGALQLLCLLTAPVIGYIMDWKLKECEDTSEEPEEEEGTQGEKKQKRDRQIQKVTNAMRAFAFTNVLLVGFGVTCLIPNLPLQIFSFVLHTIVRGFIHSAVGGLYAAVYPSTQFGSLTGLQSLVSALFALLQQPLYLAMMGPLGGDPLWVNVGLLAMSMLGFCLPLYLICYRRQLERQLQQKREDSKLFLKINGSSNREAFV

SMILES | inhibitory effect on the LAT3 mediated 14C-leucine uptake (human LAT3 [1]; [6]) | inhibitory effect on the LAT4 mediated 14C-leucine uptake (mouse LAT4 [2]) | also measured
CC(C)CC(C)N (centres unmarked) [1,3-dimethyl-n-butylamine] | significant inhibitory activity |  | 
NC1(C(=O)O)CC2CCC1C2 (centres unmarked) [BCH, 2-aminobicyclo-(2,2,1)-heptane-2-carboxylic acid] | strong inhibition | strong inhibition | 
N[C@H](Cc1c[nH]cn1)C(=O)O [D-histidine] |  | relatively strong inhibitory effect | 
CC(C)C[C@@H](N)C(=O)O [D-leucine] | relatively strong inhibitory effect | relatively strong inhibitory effect | uptake of radiolabeled substrate into oocytes expressing human LAT3 (human LAT3 [3]): significant uptake; uptake of radiolabeled substrate into oocytes expressing mouse LAT4 (mouse LAT4 [4]): significant uptake
CSCC[C@@H](N)C(=O)O [D-methionine] |  | relatively strong inhibitory effect | 
CC(C)CCN [Isopentylamine, isopentylamine] | significant inhibitory activity |  | 
CC[C@H](C)[C@H](N)C(=O)O [L-isoleucine] | strong cis-inhibitory effect | strong cis-inhibitory effect | uptake of radiolabeled substrate into oocytes expressing human LAT3 (human LAT3 [3]): a large amount of uptake; uptake of radiolabeled substrate into oocytes expressing mouse LAT4 (mouse LAT4 [4]): a large amount of uptake
CSCC[C@H](N)C(=O)O [L-methionine] |  | strong cis-inhibitory effect | inhibitory effect on the LAT3 mediated 14C-leucine uptake (human LAT3 [1]): strong cis-inhibitory effect; uptake of radiolabeled substrate into oocytes expressing human LAT3 (human LAT3 [3]): small but significant uptake; uptake of radiolabeled substrate into oocytes expressing mouse LAT4 (mouse LAT4 [4]): a large amount of uptake
N[C@@H](Cc1ccccc1)C(=O)O [L-phenylalanine] | strong cis-inhibitory effect | strong cis-inhibitory effect | uptake of radiolabeled substrate into oocytes expressing human LAT3 (human LAT3 [3]): a large amount of uptake; uptake of radiolabeled substrate into oocytes expressing mouse LAT4 (mouse LAT4 [4]): a large amount of uptake
O=C(O)[C@@H]1CCCN1 [L-proline] | did not affect | did not affect | uptake of radiolabeled substrate into oocytes expressing human LAT3 (human LAT3 [3]): small but significant uptake
CC(C)[C@H](N)C(=O)O [L-valine] | strong cis-inhibitory effect | strong cis-inhibitory effect | uptake of radiolabeled substrate into oocytes expressing human LAT3 (human LAT3 [3]): a large amount of uptake; uptake of radiolabeled substrate into oocytes expressing mouse LAT4 (mouse LAT4 [4]): a large amount of uptake
CC(=O)N[C@@H](CC(C)C)C(=O)O [N-acetyl-leucine, N-acetyl-L-leucine] | significant inhibitory activity |  | 
CCN1C(=O)C=CC1=O [N-ethylmaleimide] |  |  | effect on 14C-L-leucine uptake mediated by human LAT3 (human LAT3 [5]): completely abolished; also recorded: inhibited; effect on 14C-L-leucine uptake mediated by LAT1 (LAT1): did not affect
N=C(N)NCCC[C@H](N)C(=O)O [arginine] | did not affect | did not affect | 
N[C@@H](CC(=O)O)C(=O)O [aspartic acid] | did not affect | did not affect | 
N[C@@H](CCC(=O)O)C(=O)O [glutamic acid] | did not affect | did not affect | 
COc1ccc2c(c1)c(CC(=O)O)c(C)n2C(=O)c1ccc(Cl)cc1 [indomethacin] | strong inhibitory effect |  | 
CC(C)CN [isobutylamine] | significant inhibitory activity |  | 
COC(=O)[C@@H](N)CC(C)C [leucine methylester, L-leucine-methylester] | significant inhibitory activity |  | 
CC(C)C[C@H](N)CO [leucinol, L-leucinol] | strongly inhibited |  | 
NCCCC[C@H](N)C(=O)O [lysine] | did not affect | did not affect | 
C[C@@H]1Cc2c(Cl)cc(C(=O)N[C@@H](Cc3ccccc3)C(=O)O)c(O)c2C(=O)O1 [ochratoxin A] | strong inhibitory effect; also recorded: strongly inhibited |  | 
N[C@H](CO)Cc1ccccc1 [phenylalaninol, L-phenylalaninol] | relatively strong inhibitory effects; also recorded: strongly inhibited |  | 
NCCc1ccccc1 [phenylethylamine, 2-phenylethylamine] | significant inhibitory activity |  | 
CCCN(CCC)S(=O)(=O)c1ccc(C(=O)O)cc1 [probenecid] | weak but significant inhibitory effects |  | 
O=C(O)c1ccccc1O [salicylic acid] | weak but significant inhibitory effects |  | 
CC(C)[C@H](N)CO [valinol, L-valinol] | relatively strong inhibitory effects |  | 

From US7553642B2, “Branched neutral amino acid transporters acting as single molecule” (Human Cell Systems, Inc., priority 2003, dated 2009)
